The results in this text go back to the METLIN SMRT retention time set (Domingo-Almenara et al. 2019).

The data set in a line: gradient 5% acetonitrile 3 min, to 50% in 2 min, to 85% in 15 min, held 3 min, 100 µL/min. The following applies: column: Zorbax Extend-C18 2.1 x 50 mm; eluents: water / acetonitrile, 0.1% formic acid. In a few lines:
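The mobile phases were water and acetonitrile, each with 0.1% formic acid, pumped at 100 μL/min through a Zorbax Extend-C18 column (2.1 × 50 mm, 1.8 μm). Pure standards were injected as mixtures of ~100 molecules and detected by a quadrupole time-of-flight mass spectrometer in positive and negative ionization mode. Retention time came from computationally picked adduct peaks, each inspected by hand.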
Molecule `Cc1cc(N(C)C)n2nc(CN3CCN(c4cccc(Cl)c4)CC3)nc2n1` gave an RP-LC retention time of 635 s.

In turn, `COc1ccc(-c2csc(Cc3nc(-c4ccc(C)cc4)no3)n2)cc1` came in with an RP-LC retention time of 1240 s. With `Cc1nc2ccccc2c(=O)n1Cc1noc(-c2cccc(Cl)c2)n1`, the RP-LC retention time was 913 s. For the molecule `CCN1N=C(C(=O)N2CCOCC2)S(=O)(=O)c2cc(Cl)ccc21`, the RP-LC retention time is 760 s. Take `CC(C)NC(=O)Cn1ccn2nc(-c3ccc(F)cc3)c(CO)c2c1=O`: the RP-LC retention time amounted to 682 s. As for `CN1C(=O)c2cccnc2Sc2cc(NC(=O)C3CCCO3)ccc21` (stereo not drawn), the RP-LC retention time amounted to 619 s. `O=C(NCc1ccc2c(c1)OCO2)C1CCCN(c2ccc(N3CCOCC3)nn2)C1` (stereo not drawn): the RP-LC retention time came out at 609 s. The figure for `O=C(Cn1ncc2c(N3CCN(c4ccccn4)CC3)ncnc21)Nc1cc(F)ccc1F` is 615 s.

In turn, `CCc1ccccc1NC(=O)C1CC(=O)N(c2ccc3oc(C)nc3c2)C1` (stereo not drawn) yielded an RP-LC retention time of 723 s.

Regarding `CN(C)c1ccc2c(c1)CN(C(=O)C1CCC1)CCO2`, the RP-LC retention time was 590 s. Turning to `COC(=O)c1ccc(C(=O)OC)c(NC(=O)CSc2ncnc3sc(C)c(C)c23)c1`, the RP-LC retention time worked out at 1130 s. Molecule `CCOc1ccc(Cl)cc1S(=O)(=O)N1CCC(C(=O)NCCCOC)CC1` registered an RP-LC retention time of 761 s.

Take `CCc1cc(C2CCCN2Cc2cc(OC)c(O)c(OC)c2)on1` (stereo not drawn): the RP-LC retention time was determined as 575 s.

Turning to `CN(CCc1noc(COc2ccccc2)n1)C(=O)Nc1ccccc1C(F)(F)F`, the RP-LC retention time amounted to 953 s. Turning to `CCc1noc(NC(C)=O)c1-c1ccc(C)c(S(=O)(=O)Nc2c(C)cc(C)cc2C)c1`, the RP-LC retention time is 904 s. Take `CCCN1C(=O)COc2ccc(-c3noc(C4CC(=O)N(c5ccc(OC)cc5)C4)n3)cc21` (stereo not drawn): the RP-LC retention time came out at 951 s.

`Cc1nc(-c2cnccn2)n(CC(=O)Nc2ccc(F)c(Cl)c2)c(=O)c1C`: the RP-LC retention time was 789 s. In turn, `O=C(COc1ccccc1)N1CCN(c2nc(CN3CCOCC3)cs2)CC1` gave an RP-LC retention time of 615 s. As to `O=C(Cn1cccc1-c1nnc(C2CCC2)o1)NCc1cccc(Br)c1`, the RP-LC retention time amounted to 937 s. As for `CCS(=O)(=O)N1CCc2ccc(NC(=O)c3cccs3)cc2C1`, the figure is 747 s.

`Cc1nc(C)c(C(=O)N2CCCCCCNC(=O)[C@@H]3CCCC[C@@H]32)s1` showed an RP-LC retention time of 727 s. For `COc1cc2c(cc1CNC(=O)C(=O)c1c[nH]c3ccccc13)OCCCO2`, the RP-LC retention time came to 1320 s.

`COc1ccc2c(c1)CC(NC(=O)NCCCN1CCN(Cc3ccccc3)CC1)CO2` (stereo not drawn): the RP-LC retention time amounted to 634 s.

With `COCc1nnc(C(=O)Nc2cccc(C(=O)NCCc3c[nH]c4ccc(Cl)cc34)c2)s1`, the RP-LC retention time is 896 s. `O=C(NCc1ccccc1F)c1ccc2c(c1)CN(CC1=Cc3ccccc3OC1)CCO2` displayed an RP-LC retention time of 755 s. `O=C1NC2(CCN(C(=O)c3ccccc3)CC2)N=C1c1ccc(Cl)cc1` came in with an RP-LC retention time of 842 s.

In turn, `CCC(=O)N(C)CCc1noc(-c2ccc(C(=O)NCCC(C)C)cc2)n1` gave an RP-LC retention time of 806 s. `Cc1ccnc(N2CCC(C(=O)N3CCC(C(N)=O)(N4CCCCC4)CC3)CC2)n1` returned an RP-LC retention time of 547 s. In turn, `Cc1ccc(NC(=O)C2CCCN2S(=O)(=O)c2cc3c(cc2Cl)NC(=O)CO3)cc1` (stereo not drawn) came in with an RP-LC retention time of 800 s. Consider `CCn1c(=O)c(=O)n(CC(=O)NCc2ccco2)c2cccnc21`, for which the RP-LC retention time was found to be 652 s. In turn, `CC1CN=C2C=C(N3CCN(C(=O)NCCc4ccccc4)CC3)N=CN21` (stereo not drawn) registered an RP-LC retention time of 620 s. As for `CC(C)c1nnc(-c2ccc(S(=O)(=O)NC3CCCCC3)o2)o1`, the figure is 904 s. In turn, `O=C(O)C1CCN(C(=O)CCc2c[nH]c3ccccc23)CC1` showed an RP-LC retention time of 662 s.
